Laboratory results as given in ChEMBL document CHEMBL1153503, “Design and synthesis of novel nitrogen-containing polyhydroxylated aromatics as HIV-1 integrase inhibitors from caffeic acid phenethyl ester” (Bioorg Med Chem Lett, 2009).

Key:
[1] = target: T1, Human immunodeficiency virus type 1 integrase (Human immunodeficiency virus 1, UniProt Q7ZJM1)
Description: Inhibition of HIV1 integrase assessed as inhibition of 3'-end processing by 32P-labelled assay

[2] = target: T1, Human immunodeficiency virus type 1 integrase; test: Inhibition of HIV1 integrase assessed as inhibition of strand transfer activity by 32P-labelled assay
[3] = target: Human immunodeficiency virus type 1 integrase (Human immunodeficiency virus 1) (UniProt Q7ZJM1); test: Selectivity index, ratio of IC50 for HIV1 integrase 3'-end processing to IC50 for HIV1 integrase strand transfer activity
Human immunodeficiency virus type 1 integrase (Human immunodeficiency virus 1), sequence (Q7ZJM1 as listed by the source): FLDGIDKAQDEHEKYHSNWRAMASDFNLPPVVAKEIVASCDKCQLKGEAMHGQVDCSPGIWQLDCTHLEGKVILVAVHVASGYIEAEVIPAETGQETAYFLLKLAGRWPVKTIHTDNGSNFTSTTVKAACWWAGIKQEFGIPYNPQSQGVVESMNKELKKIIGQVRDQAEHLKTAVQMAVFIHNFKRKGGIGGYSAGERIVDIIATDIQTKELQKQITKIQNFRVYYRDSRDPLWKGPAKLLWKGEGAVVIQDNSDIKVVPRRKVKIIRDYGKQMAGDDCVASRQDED

T1 sequence (Q7ZJM1 whole entry): as the sequence (Q7ZJM1 as listed by the source) above

For COc1ccc(NS(=O)(=O)c2ccc(NC(=O)c3cc(O)c(O)c(O)c3)cc2)cc1, the IC50 [1] was 5 µM and the IC50 [2] was 4.5 µM.

Compound O=C(Nc1ccc(S(=O)(=O)Nc2ccc([N+](=O)[O-])cc2)cc1)c1cc(O)c(O)c(O)c1 has an IC50 [1] of 4 µM and an IC50 [2] of 3 µM.

For O=C(Nc1ccc(S(=O)(=O)Nc2ccccc2)cc1)c1cc(O)c(O)c(O)c1, the IC50 [1] was 7 µM and the IC50 [2] was 1.5 µM.

CC(=O)Oc1cc(C(=O)Nc2ccc(S(=O)(=O)Nc3ccccc3)cc2)cc(OC(C)=O)c1OC(C)=O gave an IC50 [1] of 8 µM and an IC50 [2] of 1.6 µM.

With O=C(Nc1ccc(S(=O)(=O)Nc2ccc(Cl)cc2)cc1)c1cc(O)c(O)c(O)c1 the IC50 [1] was 6 µM and the IC50 [2] was 2 µM.

With O=C(Nc1ccc(S(=O)(=O)Nc2ccc(F)cc2)cc1)c1cc(O)c(O)c(O)c1 the IC50 [1] was 7 µM and the IC50 [2] was 0.9 µM.

For Cc1ccc(NS(=O)(=O)c2ccc(NC(=O)c3cc(O)c(O)c(O)c3)cc2)cc1C, the IC50 [1] was 8 µM and the IC50 [2] was 8 µM.

In the case of O=C(Nc1ccc(S(=O)(=O)Nc2cccc(Br)c2)cc1)c1cc(O)c(O)c(O)c1, the IC50 [1] is reported as 2 µM and the IC50 [2] is reported as 0.7 µM.

Work on O=C(Nc1ccc(S(=O)(=O)Nc2ccc(Br)cc2)cc1)c1cc(O)c(O)c(O)c1 yielded an IC50 [1] of 3 µM and an IC50 [2] of 0.7 µM.

With O=C(Nc1ccc(S(=O)(=O)Nc2ccccc2)cc1)c1ccc(O)c(O)c1 the IC50 [1] was 100 µM and the IC50 [2] was 50 µM.

CCOc1ccc(NS(=O)(=O)c2ccc(NC(=O)c3cc(O)c(O)c(O)c3)cc2)cc1 showed an IC50 [1] of 6 µM and an IC50 [2] of 1.3 µM.

In the case of O=C(Nc1ccc(S(=O)(=O)NCc2ccc(Cl)cc2)cc1)c1cc(O)c(O)c(O)c1, the IC50 [1] is reported as 5 µM and the IC50 [2] is reported as 2 µM.

For NS(=O)(=O)c1ccc(NC(=O)c2cc(O)c(O)c(O)c2)cc1, the IC50 [1] was 22 µM, the IC50 [2] was 2 µM and the Ratio IC50 [3] was 11.

With CC(=O)Oc1cc(C(=O)Nc2ccc(S(=O)(=O)Nc3ccccc3C)cc2)cc(OC(C)=O)c1OC(C)=O the IC50 [1] was over 10 µM and the IC50 [2] was 1.6 µM.

With O=C(Nc1ccc(S(=O)(=O)Nc2ccc(F)c(F)c2)cc1)c1cc(O)c(O)c(O)c1 the IC50 [1] was 4 µM and the IC50 [2] was 1.5 µM.

O=C(Nc1ccc(S(=O)(=O)NCc2ccc(F)cc2)cc1)c1cc(O)c(O)c(O)c1 gave an IC50 [1] of 7 µM and an IC50 [2] of 2 µM.

With O=C(/C=C/c1ccc(O)c(O)c1)Nc1ccc(S(=O)(=O)Nc2ccccc2)cc1 the IC50 [1] was 16 µM and the IC50 [2] was 12 µM.

In the case of Cc1cc(C)cc(NS(=O)(=O)c2ccc(NC(=O)c3cc(O)c(O)c(O)c3)cc2)c1, the IC50 [1] is reported as 8 µM and the IC50 [2] is reported as 2.5 µM.

With O=C(Nc1ccc(S(=O)(=O)Nc2ccc(Cl)c(Cl)c2)cc1)c1cc(O)c(O)c(O)c1 the IC50 [1] was 5 µM and the IC50 [2] was 1.7 µM.

In the case of Cc1ccccc1NS(=O)(=O)c1ccc(NC(=O)c2cc(O)c(O)c(O)c2)cc1, the IC50 [1] is reported as 7 µM and the IC50 [2] is reported as 2 µM.

CCCCc1ccc(NS(=O)(=O)c2ccc(NC(=O)c3cc(O)c(O)c(O)c3)cc2)cc1 gave an IC50 [1] of 3 µM and an IC50 [2] of 2.5 µM.

Compound O=C(Nc1ccc(S(=O)(=O)Nc2ccc(F)c(F)c2F)cc1)c1cc(O)c(O)c(O)c1 has an IC50 [1] of 7 µM and an IC50 [2] of 3 µM.
